Here are results for five molecules from patent EP0944596B1, “1-ACRYLOYLINDOLINE DERIVATIVES AND THEIR USE AS PRODRUGS OF ANTICANCER AGENTS” (Auckland Uniservices Limited, priority 1996, dated 1998).

For test [1] the following is noted: background statement, literature; cited from earlier work.
The subject of test [2] is UV4 cells. Kind of test: Growth inhibition (cytotoxicity) of UV4 cells, 18 h drug exposure, methylene blue staining. The format is cell-based. The conditions noted are these: Cricetulus griseus. The method, then:
(§1) To evaluate the activity of a compound UV4 cells were maintained in exponential phase growth (doubling times 14 and 15 h respectively) using Alpha MEM containing fetal calf serum (10% v/v) without antibiotics, and were subcultured twice weekly by trypsinization. Bulk cultures were prepared for experiments by seeding cells in spinner flasks at 10^4 cells/mL in the above medium with addition of penicillin (100 IU/mL) and streptomycin (100 µg/mL). Cultures were initiated in 96-well microtiter trays to give 200 (AA8) or 300 (UV4) cells in 0.05 mL per well. After growth in a CO2 incubator for 24 h, drugs were added in culture medium, using serial two-fold dilutions to provide duplicate cultures at five different concentrations for each of eight drugs (plus eight controls) per tray. After 18 h drugs were removed by washing cultures three times with fresh medium, and the trays were incubated for a further 78 h. Cell density was then determined by staining with metbylene blue as described [Finlay, G.J.; Baguley, B.C.; Wilson, W.R. Anal. Biochem., 1984, 139: 272-277]. The IC50 was calculated as the drug concentration providing 50% inhibition of growth relative to the controls.
(§2) To evaluate the activation of the compound by E. coli nitroreductase 2 (NR2) the experiment was repeated but in addition purified E. coli nitroreductase enzyme (1 µg/mL) and NADH (1 mM, as cofactor) was added during the entire time of the incubation. As a comparison the experiment was also repeated but with the addition only of NADH and not NR2.
(§3) Where multiple determinations were carried out the IC50 is given as an average ± SEM. Where one determination only was carried out a single IC50 value is given.

The subject of test [3] is UV4 cells. Nature of the test: Activation by E. coli nitroreductase 2 (NR2): growth inhibition of UV4 cells with purified enzyme and NADH added. It counts as cell-based. Particulars: for IC50: Cricetulus griseus, UV4 cells, purified E. coli nitroreductase enzyme (1 µg/mL) and NADH (1 mM) during the entire incubation, read-out: IC50 (nM) drug + NADH + NR2; for Ratio*: IC50 drug alone/IC50 drug + NADH + NR2, intra-experiment ratios, 1080 min. How it is done: as §1, §2, §3

Where [4] appears, read: 18 h exposure, then 78 h further incubation, average ± SEM where multiple determinations, read-out: IC50 (nM) drug alone.
Setting [5] is: NADH (1 mM) added, no NR2, 18 h exposure, read-out: IC50 (nM) drug + NADH.

On to `COc1c(O)c2c(c3cc(C(=O)N4CCc5c4c(O)c(OC)c4[nH]c(C(=O)N6CC7CC78C6=CC(=O)c6[nH]cc(C)c68)cc54)[nH]c13)CCN2C(N)=O` (stereo not drawn) [CC-1065], for which the IC50 entry in test [1] is listed as “low pM range”.
On to `CCCC(=O)Nc1cc(/C=C/C(=O)N2CC(CCl)c3ccc([N+](=O)[O-])cc32)n(C)c1` (stereo not drawn) [Compound 7, 1-[(E)-3-(4-butyramido-1-methyl-2-pyrrole)acryloyl]-3-(chloromethyl)-6-nitroindoline], for which the figures for the IC50 in the test on UV4 cells [2] (setting [4]), with UV4 cells [2] (setting [5]) and with UV4 cells [3] were 2940 ± 320 nM, 1080 ± 340 nM and 43 ± 4 nM, respectively. In addition, the “Ratio*” value with UV4 cells [3] is listed as 70±13.
Take `CCCC(=O)Nc1cc(/C=C/C(=O)N2CC(CCl)c3ccc(N)cc32)n(C)c1` (stereo not drawn) [Compound 8, 6-amino-1-[(E)-3-(4-butyramido-1-methyl-2-pyrrole)acryloyl]-3-(chloromethyl)indoline]: the IC50 in the test with UV4 cells [2] (setting [4]) amounted to 38 nM; in the test with UV4 cells [2] (setting [5]) it was 24 nM; in the test with UV4 cells [3] it was 35 nM. The “Ratio*” value in the test with UV4 cells [3] worked out at 1.1.
For the molecule `Cn1cccc1C(=O)Nc1cccc(/C=C/C(=O)N2CC(CCl)c3ccc([N+](=O)[O-])cc32)c1` (stereo not drawn) [Compound 12, 1-[(E)-3-(1-methylpyrrole-2-carboxamido)cinnamoyl]-3-chloromethyl-6-nitroindoline], in the test with UV4 cells [2] (setting [4]), the IC50 is roughly 5000 nM. Moreover, in the test on UV4 cells [3], the “Ratio*” value is “ca. 30”.
With `CC(=O)Nc1cccc(/C=C/C(=O)N2CC(CCl)c3ccc([N+](=O)[O-])cc32)c1` (stereo not drawn) [Compound 13, 1-[(E)-3-(acetylamino)cinnamoyl]-3-chloromethyl-6-nitroindoline], the results for the IC50 in the test on UV4 cells [2] (setting [4]), with UV4 cells [2] (setting [5]) and with UV4 cells [3] were 335 nM, 339 nM and 74 ± 23 nM, respectively. Also, the “Ratio*” value in the test on UV4 cells [3] turned out to be 3.5.
